In ChEMBL document CHEMBL1201862, “PubChem BioAssay data set” (2004):
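Interpolation was linear, between the two tested concentrations surrounding the appropriate level; five concentrations were tested over 48 hours in 96-well plates. GI50 is the concentration that inhibits growth by half.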 The source made the active and inactive calls. Rule as the data show it: active = GI50 up to about 1.1 µM and inactive = higher.

How the values were obtained:
Assay in all cases: NCI-60 cell line screen, 48 h
CCRF-CEM = system: CCRF-CEM
RPMI-8226 = system: RPMI-8226
HOP-92 = system: HOP-92
OVCAR-3 = system: OVCAR-3
OVCAR-5 = system: OVCAR-5
SNB-19 = system: SNB-19
UACC-257 = system: UACC-257
786-0 = system: 786-0
BT-549 = system: BT-549
SK-MEL-5 = system: SK-MEL-5
CAKI-1 = system: CAKI-1
ACHN = system: ACHN
HCC 2998 = system: HCC 2998
SW-620 = system: SW-620
DU-145 = system: DU-145
K562 = system: K562
EKVX = system: EKVX
MDA-MB-231 = system: MDA-MB-231
MDA-MB-435 = system: MDA-MB-435
A498 = system: A498

| Structure (SMILES) | GI50 (CCRF-CEM) | GI50 (RPMI-8226) | GI50 (HOP-92) | GI50 (OVCAR-3) | GI50 (OVCAR-5) | GI50 (SNB-19) | GI50 (UACC-257) | GI50 (786-0) | GI50 (BT-549) | GI50 (SK-MEL-5) | GI50 (CAKI-1) | GI50 (ACHN) | GI50 (HCC 2998) | GI50 (SW-620) | GI50 (DU-145) | GI50 (K562) | GI50 (EKVX) | GI50 (MDA-MB-231) | GI50 (MDA-MB-435) | GI50 (A498) |
| --- | --- | --- | --- | --- | --- | --- | --- | --- | --- | --- | --- | --- | --- | --- | --- | --- | --- | --- | --- | --- |
| O=C1c2ccccc2C2=Nc3ccncc3CN12 | > 100 µM (inactive) | > 100 µM (inactive) | > 100 µM (inactive) | > 100 µM (inactive) | > 100 µM (inactive) | > 100 µM (inactive) | > 100 µM (inactive) | > 100 µM (inactive) | > 100 µM (inactive) | > 100 µM (inactive) | > 100 µM (inactive) | > 100 µM (inactive) | > 100 µM (inactive) | > 100 µM (inactive) | > 100 µM (inactive) | > 100 µM (inactive) | 25.9 µM (inactive) |  |  |  |
| COc1ccc(Nc2c[nH]c(=O)[nH]c2=O)cc1 | > 100 µM (inactive) | > 100 µM (inactive) | > 100 µM (inactive) | > 100 µM (inactive) |  | > 100 µM (inactive) | > 100 µM (inactive) | > 100 µM (inactive) |  | > 100 µM (inactive) | > 100 µM (inactive) | > 100 µM (inactive) | > 100 µM (inactive) | > 100 µM (inactive) | > 100 µM (inactive) | > 100 µM (inactive) | > 100 µM (inactive) | > 100 µM (inactive) | > 100 µM (inactive) | > 100 µM (inactive) |
| Cc1ccccc1Nc1nc2ccccc2nc1NS(=O)(=O)c1ccccc1 | > 100 µM (inactive) | > 100 µM (inactive) | 47.5 µM (inactive) | > 100 µM (inactive) | > 100 µM (inactive) | 96.8 µM (inactive) | > 100 µM (inactive) | > 100 µM (inactive) |  | > 100 µM (inactive) | > 100 µM (inactive) | > 100 µM (inactive) | > 100 µM (inactive) | > 100 µM (inactive) |  | > 100 µM (inactive) | > 100 µM (inactive) | > 100 µM (inactive) | > 100 µM (inactive) |  |
| Cc1nc(N)sc1/N=N/c1cc(Cl)c([N+](=O)[O-])cc1Cl | 11.8 µM (inactive) | 2.29 µM (inactive) |  | 15.6 µM (inactive) | 31.3 µM (inactive) | 29.1 µM (inactive) | 16.7 µM (inactive) | 19.7 µM (inactive) |  | 4.22 µM (inactive) | 27.4 µM (inactive) | 20.4 µM (inactive) |  | 16.4 µM (inactive) | 13.6 µM (inactive) | 13.1 µM (inactive) | 13 µM (inactive) | 14.8 µM (inactive) | 19.4 µM (inactive) |  |
| N#C/C(C(=O)Nc1ccccc1)=C(/N)N1CCCC1 | > 100 µM (inactive) | > 100 µM (inactive) | > 100 µM (inactive) | > 100 µM (inactive) | > 100 µM (inactive) | > 100 µM (inactive) | > 100 µM (inactive) | > 100 µM (inactive) |  | > 100 µM (inactive) | > 100 µM (inactive) | > 100 µM (inactive) | > 100 µM (inactive) | > 100 µM (inactive) | > 100 µM (inactive) | > 100 µM (inactive) | 72.3 µM (inactive) | > 100 µM (inactive) | > 100 µM (inactive) | > 100 µM (inactive) |
| C=CCCCN(C(=O)c1ccccc1)c1ccc(C(=O)OC)o1 |  |  | > 100 µM (inactive) |  | > 100 µM (inactive) | > 100 µM (inactive) | > 100 µM (inactive) | > 100 µM (inactive) |  | 31 µM (inactive) | > 100 µM (inactive) | > 100 µM (inactive) |  |  | > 100 µM (inactive) |  | > 100 µM (inactive) | > 100 µM (inactive) |  | > 100 µM (inactive) |
| O=[N+]([O-])c1ccc2[nH]c(=S)[nH]c(=S)c2c1 | > 100 µM (inactive) | > 100 µM (inactive) | > 100 µM (inactive) | > 100 µM (inactive) | > 100 µM (inactive) | > 100 µM (inactive) | > 100 µM (inactive) | > 100 µM (inactive) |  | > 100 µM (inactive) | > 100 µM (inactive) | > 100 µM (inactive) | > 100 µM (inactive) | > 10 µM (inactive) | > 100 µM (inactive) | > 100 µM (inactive) | > 100 µM (inactive) | > 100 µM (inactive) | > 100 µM (inactive) | > 100 µM (inactive) |
| O=C1/C(=C/c2ccccc2O)N=C(c2ccccc2)N1C1Nc2cc3c(cc2S1)NC(N1C(=O)/C(=C/c2ccccc2O)N=C1c1ccccc1)S3 (stereo not drawn) | 39.7 µM (inactive) | 26.1 µM (inactive) | 0.489 µM (active) | 55.1 µM (inactive) | > 100 µM (inactive) |  | 66.8 µM (inactive) | 25.4 µM (inactive) |  | 29.7 µM (inactive) | 56.5 µM (inactive) | 21.7 µM (inactive) | 33.6 µM (inactive) | 36.3 µM (inactive) | 42.8 µM (inactive) | 29.9 µM (inactive) | 46.7 µM (inactive) | 32.7 µM (inactive) | 14.8 µM (inactive) | 20 µM (inactive) |
| CN(CCCNC(=O)c1nn(-c2ccc(Cl)cc2Cl)c2c1ccc1ccccc12)CCCNC(=O)c1nn(-c2ccc(Cl)cc2Cl)c2c1ccc1ccccc12 | 1.92 µM (inactive) | 1.87 µM (inactive) | 1.84 µM (inactive) | 1.72 µM (inactive) | 1.89 µM (inactive) | 1.54 µM (inactive) | 1.78 µM (inactive) | 1.54 µM (inactive) |  | 1.88 µM (inactive) | 1.58 µM (inactive) | 1.66 µM (inactive) | 1.53 µM (inactive) | 2.26 µM (inactive) | 1.77 µM (inactive) | 1.1 µM (active) | 1.69 µM (inactive) | 1.75 µM (inactive) | 1.71 µM (inactive) | 1.43 µM (inactive) |
| O=C(CCCN1CC=C(n2c(=O)[nH]c3ccccc32)CC1)c1cccs1 | > 100 µM (inactive) | > 100 µM (inactive) | > 100 µM (inactive) | > 100 µM (inactive) | > 100 µM (inactive) | > 100 µM (inactive) | > 100 µM (inactive) | > 100 µM (inactive) |  | > 100 µM (inactive) | > 100 µM (inactive) | > 100 µM (inactive) | > 100 µM (inactive) | > 100 µM (inactive) | > 100 µM (inactive) | 66.2 µM (inactive) | > 100 µM (inactive) | > 100 µM (inactive) | > 100 µM (inactive) | > 100 µM (inactive) |
| Cc1ccc(N(C(=O)Nc2ccc(F)c(Cl)c2)C2=NCC(C)S2)cc1 (stereo not drawn) | 42.2 µM (inactive) | > 10 µM (inactive) |  | 45.3 µM (inactive) | > 100 µM (inactive) | > 100 µM (inactive) | 53.2 µM (inactive) | 57.8 µM (inactive) |  | 18.7 µM (inactive) | 22.2 µM (inactive) | 50.2 µM (inactive) |  | 74 µM (inactive) | > 100 µM (inactive) | 43.9 µM (inactive) | 49.9 µM (inactive) | > 100 µM (inactive) |  | 34.3 µM (inactive) |
| Cc1nc2c3c(ncn2n1)Oc1c(c(-c2ccccc2)nn1-c1ccccc1)C3c1ccc(Cl)cc1 (stereo not drawn) | > 10 µM (inactive) | > 100 µM (inactive) | 98.4 µM (inactive) | > 100 µM (inactive) | > 100 µM (inactive) | 34.8 µM (inactive) | > 100 µM (inactive) | 39 µM (inactive) |  |  | > 100 µM (inactive) | 40.8 µM (inactive) | > 100 µM (inactive) | > 100 µM (inactive) | > 100 µM (inactive) | > 100 µM (inactive) | > 100 µM (inactive) | > 100 µM (inactive) | > 100 µM (inactive) | > 100 µM (inactive) |
| COC1OC(Cn2cc([N+](=O)[O-])nc2C)C(O)C(O)C1O (stereo not drawn) | > 100 µM (inactive) | > 100 µM (inactive) | > 100 µM (inactive) | > 100 µM (inactive) | > 100 µM (inactive) | > 100 µM (inactive) | > 100 µM (inactive) | > 100 µM (inactive) |  | > 100 µM (inactive) | > 100 µM (inactive) | > 100 µM (inactive) | > 100 µM (inactive) | > 100 µM (inactive) | > 100 µM (inactive) | > 100 µM (inactive) | > 100 µM (inactive) | > 100 µM (inactive) | > 100 µM (inactive) | > 100 µM (inactive) |
| CCOC(CN(C)C(=O)Nc1cccc2ccccc12)OCC | > 10 µM (inactive) | > 10 µM (inactive) | > 10 µM (inactive) | > 10 µM (inactive) |  | > 10 µM (inactive) | > 10 µM (inactive) | > 10 µM (inactive) |  | > 10 µM (inactive) | > 10 µM (inactive) | > 10 µM (inactive) | > 10 µM (inactive) | > 10 µM (inactive) | > 10 µM (inactive) | > 10 µM (inactive) | > 10 µM (inactive) | > 10 µM (inactive) | > 10 µM (inactive) | > 10 µM (inactive) |
| O/N=C1\CCc2nonc2\C1=N/Nc1ccccc1 | > 100 µM (inactive) | > 100 µM (inactive) | > 100 µM (inactive) | > 100 µM (inactive) | > 100 µM (inactive) | > 100 µM (inactive) | > 100 µM (inactive) | > 100 µM (inactive) |  | > 100 µM (inactive) | > 100 µM (inactive) | 43.7 µM (inactive) | > 100 µM (inactive) | > 100 µM (inactive) | > 100 µM (inactive) | > 100 µM (inactive) | 39.9 µM (inactive) | > 100 µM (inactive) | > 100 µM (inactive) |  |
